Laboratory results reported in patent US10322154B2, “Sandalwood oil and its uses related to clostridium infections” (Santalis Pharmaceuticals, Inc., priority 2012, dated 2019).
“And” between values parts separate entries of the source, which are not always exact repeats. Identical values can stand only once.

Test system: Clostridium difficile
Assay: C. difficile challenge in mice, qualitative fecal pellet analysis
Assay type: in vivo, C57BL/6 mouse
Set-up: key: +: positive (for the presence of C. difficile in the stool); −: negative
Conditions: 50 mg/kg oral gavage Days 0-4, per animal
Method: Challenge Preparation: Challenge preparation was performed inside an anaerobe glove box in IW 305 in order to minimize oxygen exposure. A seed stock of the challenge organism (C. difficile) was thawed and added to the appropriate growth medium on Day −1. The organism was incubated anaerobically overnight (18-24 hrs) at 37° C. On the day of challenge (Day 0), the culture was diluted in DPBS to achieve a target concentration of 10^4 CFU/dose. Syringes with attached gavage needles were loaded with challenge material and placed on ice for transfer to the animal group.
Polymer Carrier: The polymer carrier used in these studies was a composition comprising polyethylene glycol 8000 (PEG8000) and hydroxypropyl methylcellulose acetate succinate (HPMCAS-LF). HPMCAS-LF was used to make the polymer insoluble at low pH. The formulation comprising a polymer carrier and sandalwood oil comprised about 50% PEG8000, about 41.67% sandalwood oil and about 8.33% HPMCAS-LF.
60 female C57BL\6 mice that weighed approximately 26-30 grams and were approximately 7-11 weeks old on Day 0 were used. The C57BL/6 mouse is susceptible to C. difficile and used extensively as a good animal model for the evaluation of antibacterial therapeutics. Treatments were administered via oral gavage and/or intraperitoneally in order to mimic treatment in humans. The challenge was administered via oral gavage as this is both an effective and minimally invasive route of administration that mimics the natural route of infection.
The body weights required for randomization were determined in Week −1 (the lowest body weights were excluded from randomization). After randomization, mice were assigned to one of six groups as indicated below in Table 6:
Treatment Procedure: All treatment doses were vortexed before administration to animals. On Days −6, −5 and −4, animals were administered the antibiotic cocktail via oral gavage at a volume of 0.3 mL. Treatments were administered ±1 hour from the initial day of dosing. On Day −1, animals were administered Clindamycin (10 mg/kg) via intraperitoneal (IP) at a volume of 0.4 mL. Post-challenge on Days 0-4, animals were administered the appropriate test article as listed in the table above via oral gavage at a volume of 0.3 mL. Treatments were administered ±1 hour from the initial day of dosing.
Challenge: On Day 0, mice were challenged via oral gavage with Clostridium difficile at a volume of 0.2 mL. The bacterial suspension was supplied (and maintained) on ice in pre filled syringes and inverted prior to administration to each group. […]
Microbiology Analysis: To isolate C. difficile, fecal pellets or swabs were solubilized in PBS and then cultured onto CDSA. […] Results were recorded as positive (for the presence of C. difficile in the stool) or negative.

CN[C@H](CC(C)C)C(=O)N[C@H]1C(=O)N[C@@H](CC(N)=O)C(=O)N[C@H]2C(=O)N[C@H]3C(=O)N[C@H](C(=O)N[C@H](C(=O)O)c4cc(O)cc(O)c4-c4cc3ccc4O)[C@H](O)c3ccc(c(Cl)c3)Oc3cc2cc(c3O[C@@H]2O[C@H](CO)[C@@H](O)[C@H](O)[C@H]2O[C@H]2C[C@](C)(N)[C@H](O)[C@H](C)O2)Oc2ccc(cc2Cl)[C@H]1O [Vancomycin]
Qualitative Fecal Pellet Analysis (presence of C. difficile in the stool) (Day 1): −
Qualitative Fecal Pellet Analysis (presence of C. difficile in the stool) (Day 2, 50 mg/kg): − (9×) and +
Qualitative Fecal Pellet Analysis (presence of C. difficile in the stool) (Day 3): −
Qualitative Fecal Pellet Analysis (presence of C. difficile in the stool) (Day 4): −
